Values of other authors as cited in article PMC9159073 (Journal of medicinal chemistry, 2022).
Where two headings read alike, the source gives them in different places.

Key:
[1] = test system: SARS-CoV-2 PL^pro; details: increase in FluoZin-3 fluorescence
[2] = test system: SARS-CoV-2 PL^pro
[3] = test system: SARS-CoV-2 PL^pro; details: for IC50: read-out: Enzymatic inhibition IC50; for Inhibition of SARS-CoV-2 PLpro: IC50 not quantified
[4] = test system: SARS-CoV-2 PL^pro; remark: listed apart in the source
[5] = test system: SARS-CoV-2 PL^pro; details: read-out: IC50 (FP assay)
[6] = molecular target: SARS-CoV-2 PL^pro; details: read-out: KD (SPR)
[7] = test system: host DUBs and DUB-like proteases; details: 10 DUBs or DUB-like proteases
[8] = test system: SARS-CoV-2 M^pro; details: read-out: M^pro IC50; no reducing agent in the Mpro assay
[9] = test system: SARS-CoV-2 PL^pro; remark: listed apart in the source
[10] = test system: SARS-CoV-2
[11] = test system: SARS-CoV-2; details: for Antiviral effect in combination with hydroxychloroquine: combined with hydroxychloroquine; for Antiviral activity in combination with remdesivir: combined with remdesivir
[12] = test system: SARS-CoV-2 nsp13
[13] = test system: SARS-CoV-2 nsp14
[14] = test system: SARS-CoV-2; details: read-out: Antiviral EC50; A549-hACE2 cells, virus yield reduction assay
[15] = test system: SARS-CoV-2 PL^pro; details: read-out: IC50, deISGylating activity of PLpro; ISG15-Rh substrate
[16] = test system: bacteria
[17] = test system: mammalian cell culture
[18] = test system: SARS-CoV-2 PL^pro; details: read-out: IC50, mass spectrometry assay; nsp 2/3 substrate
[19] = test system: SARS-CoV-2; details: read-out: Antiviral EC50
[20] = test system: SARS-CoV PL^pro
[21] = FRET assay, hit validation study
[22] = SARS-CoV-2 infected Vero E6 cells
[23] = read-out: Antiviral EC50 (qRTPCR), Vero E6 cells, qRT-PCR assay
[24] = read-out: IC50, deubiquitinating activity of PLpro

In the case of c1ccc2sc(SSc3nc4ccccc4s3)nc2c1 [2,2’ -dithiobis(benzothiazole) (70), 2,2’ -dithiobis(benzothiazole)], the “Zinc ejection from PLpro” value [1] is given as “eject zinc”.
In the case of c1ccc(SSc2ccccn2)nc1 [2,2’ -dithiodipyridine (69), 2,2’ -dithiodipyridine], the “Zinc ejection from PLpro” value [1] is given as “eject zinc”.
In the case of O=C(O)c1cc(SSc2ccc([N+](=O)[O-])c(C(=O)O)c2)ccc1[N+](=O)[O-] [5,5’ -dithiobis(2-nitrobenzoic acid)], the “Zinc ejection from PLpro” value [1] is listed as “eject zinc”.
For Nc1nc2[nH]cnc2c(=S)[nH]1 [6-TG (26), 6-thioguanine], the “Binding to PLpro in the thermal shift assay” value [2] is listed as “no binding”, the IC50 [3, 21] is listed as over 50 µM and the “Intracellular PLpro inhibition in the FlipGFP assay” value (from here on “Intracellular PLpro inhibition”) [4] is listed as “did not inhibit”.
In the case of Cc1ccc(NC2=CC(=O)c3sc(C)nc3C2=O)cc1 [Cdk4 inhibitor III (34)], the IC50 ([3]; HTS) is given as 0.39 µM.
In the case of Oc1c(Cl)cc(Cl)c2cccnc12 [Chloroxine (37), chloroxine], the “Binding to PLpro in the biolayer interferometry and thermal shift assays” value [2] is listed as “showed binding” and the IC50 [5] is listed as 7.24 µM.
In the case of C[C@H](c1cccc2ccccc12)N1CCC(C(=O)NCc2cc(F)cc(NC(=O)N3CCN(C)CC3)c2)CC1 [Compound 8], the Kd [6] is listed as 2.6 µM, the IC50 [3] is listed as 0.44 µM and the “Inhibition of a panel of host DUBs and DUB-like proteases” value [7] is listed as “did not show significant inhibition”.
For CC1(C)OC2=C(C(=O)C(=O)c3ccccc32)C1n1cc(-c2ccccc2)nn1 (stereo not shown) [Compound 38], the IC50 ([3]; 0.1 mM DTT in the PLpro assay) is given as 1.7 µM.
For CN(Cc1cn(C2C3=C(OC2(C)C)c2ccccc2C(=O)C3=O)nn1)C1=CC(=O)c2ccccc2C1=O (stereo not shown) [Compound 39], the IC50 ([3]; 0.1 mM DTT in the PLpro assay) is listed as 2.2 µM.
For CN(Cc1cn(C2C3=C(OC2(C)C)c2ccccc2C(=O)C3=O)nn1)C1=C(Br)C(=O)c2ccccc2C1=O (stereo not shown) [Compound 40], the IC50 ([3]; 0.1 mM DTT in the PLpro assay) is listed as 3.1 µM and the IC50 [8] is listed as 66 µM.
In the case of COC(=O)/C=C/C(=O)NNC(=O)CCc1ccc(NC(C)=O)cc1C(=O)N[C@H](C)c1cccc2ccccc12 [Compound 47], the “Antiviral EC50” value [10, 22] is given as “insignificant cytoprotective effects” and the IC50 ([3]; covalent inhibitors) is given as 0.23 µM.
In the case of C#CC(=O)NNC(=O)CCc1ccccc1C(=O)N[C@H](C)c1cccc2ccccc12 [Compound 48], the “Antiviral EC50” value [10, 22] is given as “cytotoxic” and the IC50 ([3]; covalent inhibitors) is given as 0.098 µM.
For C[C@@H](NC(=O)c1ccccc1CCC(=O)NNC(=O)CCl)c1cccc2ccccc12 [Compound 49], the IC50 ([3]; covalent inhibitors) is listed as 5.4 µM.
For C[C@@H](NC(=O)c1ccccc1CCC(=O)NNC(=O)CC#N)c1cccc2ccccc12 [Compound 50], the IC50 ([3]; covalent inhibitors) is given as 8 µM.
For C[C@@H](NC(=O)c1ccccc1CCC(=O)NNC(=O)/C(C#N)=C/C1CC1)c1cccc2ccccc12 [Compound 51], the IC50 ([3]; covalent inhibitors) is listed as over 200 µM.
For CCN(CC)C(=S)SSC(=S)N(CC)CC [Disulfiram (67), disulfiram], the “Antiviral effect in combination with hydroxychloroquine” value [11] is given as “synergistic antiviral effect”, the “Antiviral activity in combination with remdesivir” value [11] is given as “synergistic” and the “Zinc ejection from PLpro” value [1] is given as “eject zinc”. The “Inhibition of nsp13 ATPase activity” value [12] was “inhibit” and the “Inhibition of nsp14 exoribonuclease activity” value [13] was “inhibit”.
For O=c1c2ccccc2[se]n1-c1ccccc1 [Ebselen (55), ebselen], the “Antiviral effect in combination with hydroxychloroquine” value [11] is listed as “synergistic antiviral effect”, the “Antiviral activity in combination with remdesivir” value [11] is listed as “synergistic” and the “Zinc ejection from PLpro” value [1] is listed as “eject zinc”. For the same compound, the “Inhibition of nsp13 ATPase activity” value [12] was “inhibit” and the “Inhibition of nsp14 exoribonuclease activity” value [13] was “inhibit”.
In the case of Cc1ccc(N)cc1C(=O)N[C@H](C)c1cccc2ccccc12 [GRL0617 (4), GRL0617], the EC50 [14] is listed as over 20 µM.
In the case of O=Cc1ccc(O)cc1 [HBA (22), 4-hydroxybenzaldehyde], the IC50 [15] is given as 3.99 ± 1.33 µM and the “Antiviral EC50 (qRTPCR)” value ([10]; Vero E6 cells, qRT-PCR assay) is given as “not conclusive”.
In the case of COC(=O)c1ccc(O)c(O)c1 [HE9 (20), methyl 3,4-dihydroxybenzoate], the EC50 ([10]; read-out: Antiviral EC50 (CPE), cytopathic effect (CPE) assay) is listed as 10.4 µM and the EC50 [10, 23] is listed as 0.13 µM.
For C[C@H](c1ccccc1Cl)N(C)Cc1cc(O)ccc1Cl [Jun9-13-9 (11)], the IC50 ([3]; FRET-based enzymatic assay) is listed as 6.67 µM.
For CC(C)C(=O)OC[C@H]1O[C@@H](n2ccc(NO)nc2=O)[C@H](O)[C@@H]1O [Molnupiravir (2), molnupiravir], the Ames test [16] is listed as “positive”.
For O=c1nc(NO)ccn1[C@@H]1O[C@H](CO)[C@@H](O)[C@H]1O [NHC, β-d-N^4-hydroxycytidine], the Host mutational activity [17] is given as “displayed host mutational activity”.
In the case of O=C1c2ccccc2-c2nc3nnnn3nc21 [PKK1/Akt/Flt dual pathway inhibitor (32)], the IC50 ([3]; HTS) is listed as 0.26 µM.
For Cc1cc2nc3c(=O)[nH]c(=O)nc-3n(C)c2cc1C=O [Ro 08–2750 (33)], the IC50 ([3]; HTS) is given as 0.53 µM.
In the case of COCC[n+]1c2c(n(Cc3cnccn3)c1C)C(=O)c1ccccc1C2=O.[Br-] [YM155 (27), YM155], the IC50 [3, 21] is given as 20.1 µM, the IC50 ([3]; FRET-based enzymatic assay, Arg-Leu-Arg-Gly-Gly-AMC substrate, 50 mM HEPES, pH 7.5, 2 mM DTT) is given as 2.47 ± 0.46 µM and the “Intracellular PLpro inhibition” value [4] is given as “not conclusive due to cell cytotoxicity”. For the same compound, the IC50 [18] was over 50 µM.
In the case of OCCc1ccc(O)cc1 [YRL (21), 4-(2-hydroxyethyl)phenol], the IC50 [15] is given as 6.68 ± 1.2 µM, the “Antiviral EC50 (CPE)” value ([10]; cytopathic effect (CPE) assay) is given as “failed to show inhibition” and the EC50 [10, 23] is given as 1 µM.
In the case of O=C1c2c(O)cccc2[C@H]([C@@H]2O[C@H](CO)[C@@H](O)[C@H](O)[C@H]2O)c2cc(CO)cc(O)c21 [aloin A (42), aloin A], the IC50 [3] is given as 13.2 µM and the IC50 [9, 24] is given as 15.7 µM.
In the case of O=C1c2c(O)cccc2[C@@H]([C@@H]2O[C@H](CO)[C@@H](O)[C@H](O)[C@H]2O)c2cc(CO)cc(O)c21 [aloin B (43), aloin B], the IC50 [3] is given as 16.1 µM and the IC50 [9, 24] is given as 17.5 µM.
For C[C@H]1COC2=C1C(=O)C(=O)c1c2ccc2c1CCCC2(C)C [cryptotanshinone (28), cryptotanshinone], the EC50 [19] is listed as over 200 µM and the “Intracellular PLpro inhibition” value [4] is listed as “not conclusive due to cell cytotoxicity”.
In the case of Cc1cccc2c3c(ccc12)C1=C(C(=O)C3=O)[C@@H](C)CO1 [dihydrotanshinone I (30), dihydrotanshinone I], the IC50 [3, 21] is listed as 33 µM and the IC50 ([3]; HTS) is listed as 0.59 µM.
For CCC(CC)COC(=O)[C@H](C)N[P@](=O)(OC[C@H]1O[C@@](C#N)(c2ccc3c(N)ncnn23)[C@H](O)[C@@H]1O)Oc1ccccc1 [remdesivir (1), remdesivir], the EC50 ([10]; read-out: Antiviral EC50, SARS-CoV-2 infected Vero E6 cells) is given as 0.74 µM.
For Cc1coc2c1C(=O)C(=O)c1c-2ccc2c1CCCC2(C)C [tanshinone IIA (31), tanshinone IIA], the EC50 [19] is listed as over 200 µM.
For CC1(C)CCC2=C(O1)c1ccccc1C(=O)C2=O [β-lapachone (35), β-lapachone], the IC50 ([3]; HTS) is listed as 0.61 µM.
In the case of “Ac-Abu(Bth)-Dap-Gly-Gly-VME [VIR250 (44)]”, the “Inhibition of SARS-CoV-2 PLpro” value [3] is listed as “dose-dependent inhibition” and the “Inhibition of SARS-CoV PLpro” value [20] is listed as “dose-dependent inhibition”.
For Ac-hTyr-Dap-Gly-Gly-VME [VIR251 (45)], the “Inhibition of SARS-CoV-2 PLpro” value [3] is listed as “dose-dependent inhibition” and the “Inhibition of SARS-CoV PLpro” value [20] is listed as “dose-dependent inhibition”.
